Measurements: patent US20250387311A1, “SCLAREOL OR SCLAREOLIDE FOR IMPROVING SCALP CONDITIONS AND HAIR GROWTH” (ISP Investments LLC, priority 2022, published 2025)

Columns and labels:
[1] = system: Malassezia furfur; test: Anti-fungal efficacy, germ count reduction; format: cell-based; conditions: 0.12%
Procedure: Assay of the anti-fungal efficacy of zinc pyrithione, piroctone, climbazole and sclareolide on Malassezia furfur was assayed.

[2] = system: keratin 10; test: Keratin 10 expression in ex vivo scalp skin biopsies (immunohistochemistry); format: cell-based, human; conditions: 0.12%
Procedure: (§1) Method: CYP27B1 was assessed by immunohistochemistry with a specific antibody. Biopsies of healthy human scalp skin in culture were treated with sclareolide diluted at 0.12% in placebo (ceraphyl 368 (Ashland) applied once a day for 48 hours topically (20 μl/biopsy). Control biopsies received only ceraphyl 368. The immunostaining was performed using paraffin sections incubated in the presence of anti-CYP27B1 antibody (rabbit monoclonal, Abcam). After an hour and a half of incubation followed by rinses, the sections were incubated in the presence of the secondary anti-rabbit antibody coupled with a fluorophore (Alexa Fluor® 488, Invitrogen). The sections were then examined under a fluorescence microscope (Nikon Eclipse Ni-E microscope). CYP27B1 expression was then observed (using NiS-AR Nikon acquisition software) and quantified by image analysis (Volocity® image analysis software, Improvision).
Method: Keratin 10 was assessed by immunohistochemistry. The protocol was the same as in example 4 with the use of anti-keratin 10 antibody (rabbit monoclonal, Abcam).

[3] = system: Malassezia restricta; test: Broth microdilution (MIC) assay, resazurin fluorescence; format: cell-based
Procedure: Sclareolide antifungal potential on Malassezia restricta was evaluated by the broth microdilution method.
Method: Malassezia restricta was routinely grown on modified Leeman-Notman (mLN) agar. The broth microdilution assay was performed following EUCAST guidelines (www.eucast.org) with slight modifications. Between five and ten colonies were suspended in a modified RPMI 1640 media supplemented with resazurin at a D.O (Density Optical) of 0.1. In a 96 well plate, serial dilutions of sclareolide (0.00023% to 0.12%), zinc pyrithione (0.015%-0.0023%) and Ketoconazol (0.5-0.015 μg/ml) were prepared in modified RPMI 1640. An equal volume of Malassezia restricta inoculum was added to the test samples at different concentrations. Following 48 h-60 h of incubation at 34° C., resazurin fluorescence was analyzed at 530 nm and 590 nm.
Results are presented as relative fluorescence intensity compared to DMSO control. the MIC is defined as the lowest drug concentration that inhibited growth.

[4] = system: Enterococcus faecalis ATCC 29212; conditions: cited from earlier work
[5] = system: total lipids; test: Total lipid content in ex vivo scalp skin biopsies (Nile Red staining); format: cell-based, human; conditions: 0.12%
Procedure: as §1
Method: total lipids were assessed by fluorescent staining by using the fluorescent dye Nile Red. The treatment of the biopsies was the same than in example 4. […] The sections were then examined under a fluorescence microscope (Nikon Eclipse Ni-E microscope). Red fluorescence was then observed (using NiS-AR Nikon acquisition software) and quantified by image analysis (Volocity® image analysis software, Improvision).

[6] = system: Staphylococcus aureus ATCC 25923; conditions: cited from earlier work
[7] = system: CYP27B1; test: CYP27B1 expression in ex vivo scalp skin biopsies (immunohistochemistry); format: cell-based, human
Procedure: as §1

[8] = Solubility in surfactant solution (12% Sodium laureth sulfate/2% Cocamidopropyl betaine); format: physicochemical; conditions: 12% Sodium laureth sulfate (SLES)/2% Cocamidopropyl betaine (CAPB), 1 hour stirring
[9] = system: Escherichia coli ATCC 25922; conditions: cited from earlier work
[10] = system: Pseudomonas aeruginosa ATCC 27950; conditions: cited from earlier work
[11] = 48 h-60 h incubation at 34° C., vs DMSO control

For `CC(C)(C)C(=O)C(Oc1ccc(Cl)cc1)n1ccnc1` (stereo not shown) [Climbazole, climbazole], the “Reduction % (6 h)” value [1] was 38.5% and the “Reduction % (24 h)” value [1] was 33.80%.
In the case of `Cc1cc(CC(C)CC(C)(C)C)n(O)c(=O)c1` (stereo not shown) [OCT, piroctone], the “Reduction % (6 h)” value [1] is reported as 15.4% and the “Reduction % (24 h)” value [1] is reported as 35.30%.
For `CC1(C)CCC[C@]2(C)[C@H]3CC(=O)O[C@]3(C)CC[C@@H]12` [sclareolide, Sclareolide], the “increase in keratin 10 labelling intensity” value ([2]; 48-hour treatment, compared to placebo, highly significant) was “+20%”, the “Keratin 10 expression (% placebo)” value ([2]; 48 hours, placebo = 100%) was 120% and the “concentration at which growth of Malassezia restricta was completely inhibited (MIC)” value [3, 11] was 0.12%. For the same molecule, the “concentration from which growth of Malassezia restricta was significantly inhibited” value [3, 11] was 0.001875%, the antibacterial activity [4] was “good antibacterial activity” and the “increase in lipid labelling intensity” value ([5]; 48-hour treatment, compared to placebo, significant) was “+46%”. For the same molecule, the “Total lipid content (% placebo)” value ([5]; 48 hours, placebo = 100%) was 146%, the antibacterial activity [6] was “good antibacterial activity” and the “CYP27B1 protein expression (% placebo)” value ([7]; 0.12% in ceraphyl 368, topical once a day, 48 hours, placebo = 100%) was 138%. For the same molecule, the “increase in CYP27B1 labelling intensity” value ([7]; 0.12%, 48-hour treatment, compared to placebo, very significant) was “+38%”, the “Reduction % (6 h)” value [1] was 38.5% and the “Reduction % (24 h)” value [1] was 32.40%. For the same molecule, the “dissolution in surfactant solution” value [8] was “could not be dissolved”, the antibacterial activity [9] was “good antibacterial activity” and the antibacterial activity [10] was “good antibacterial activity”.
With zinc pyrithione [ZPT] the “inhibition of Malassezia restricta” value ([3]; tested in parallel at the same concentrations) was “high inhibition”, the “Reduction % (6 h)” value [1] was 47.4% and the “Reduction % (24 h)” value [1] was 93.10%.
